Data from patent US20210238162A1, “CHEMICAL COMPOUNDS” (GlaxoSmithKline Intellectual Property Development Limited, priority 2015, published 2021).

Test system: mdx mice
Assay: Functional repair following limb muscle injury in mdx mice (FIG. 2)
Format: in vivo
Conditions: not given

With `O=C(N[C@H]1CCNC1=O)c1cnc2cc(OC(F)F)c(F)cc2c1` [Example 48, (S)-7-(Difluoromethoxy)-6-fluoro-N-(2-oxopyrrolidin-3-yl)quinoline-3-carboxamide] the “protection and acceleration of functional repair dose response curves of PGDS Inhibition” value was “protection and acceleration of functional repair”.

Target: T1, haematopoietic prostaglandin D synthase (H-PGDS) (Homo sapiens, UniProt O60760)
T1 construct: Full length human H-PGDS cDNA (Invitrogen Ultimate ORF IOH13026) was amplified by PCR; made in house; host or cells: E. coli BL21 (DE3*), vector pET22b+
Assay: H-PGDS RapidFire High Throughput Mass Spectrometry Assay
Format: biochemical
Conditions: H-PGDS RapidFire MS assay, mean pIC50; read-out: Potency Range (mean pIC50) (converted)
How it was run: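 PGH2 (~10 μM burst) generated in situ from arachidonic acid by FLAG-tagged human COX-2 (Sf9-expressed), then converted to PGD2 by full-length human His-tagged H-PGDS from E. coli. PGD2 and PGF2α (substrate surrogate) quantified by RapidFire SPE-triple quadrupole MS; percent conversion calculated.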

T1 sequence (O60760 whole entry): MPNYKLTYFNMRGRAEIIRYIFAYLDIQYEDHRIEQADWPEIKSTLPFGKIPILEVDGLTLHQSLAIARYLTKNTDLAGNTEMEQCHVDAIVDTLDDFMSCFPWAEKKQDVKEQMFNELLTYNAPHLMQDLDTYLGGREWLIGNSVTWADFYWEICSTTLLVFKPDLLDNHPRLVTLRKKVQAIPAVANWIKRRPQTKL

First: O=C(N[C@H]1CCNC1=O)c1cnc2cc(OC(F)F)c(F)cc2c1 [Example 48, (S)-7-(Difluoromethoxy)-6-fluoro-N-(2-oxopyrrolidin-3-yl)quinoline-3-carboxamide]
Second: O=C(NC1CCc2ccccc2NC1=O)c1cnc2cc(OC(F)F)c(Cl)cc2c1 (stereo not shown) [Example 237, 6-Chloro-7-(difluoromethoxy)-N-(2-oxo-2,3,4,5-tetrahydro-1H-benzo[b]azepin-3-yl)quinoline-3-carboxamide]
The IC50 of the first is higher: 10 to 79.4 nM for the first, under 10 nM for the second.

`O=C(N[C@H]1C[C@H](N2CC(O)(C(F)(F)F)C2)C1)c1cnc2cc(OC(F)F)c(Cl)cc2c1` [Example 214, 6-Chloro-7-(difluoromethoxy)-N-((trans)-3-(3-hydroxy-3-(trifluoromethyl)azetidin-1-yl)cyclobutyl)quinoline-3-carboxamide] and `O=C(N[C@H]1C[C@](O)(C(F)(F)F)C1)c1cnc2cc(OC(F)F)c(Cl)cc2c1` [Example 232, 6-Chloro-7-(difluoromethoxy)-N-((1s,3s)-3-hydroxy-3-(trifluoromethyl)cyclobutyl)quinoline-3-carboxamide] cannot be ordered by IC50: under 10 nM for the first, under 10 nM for the second.

`CC(C)(O)[C@H]1CC[C@H](NC(=O)c2cnc3cc(OC(F)(F)F)c(Cl)cc3c2)CC1` [Example 215B, 6-Chloro-N-((trans)-4-(2-hydroxypropan-2-yl)cyclohexyl)-7-(trifluoromethoxy)quinoline-3-carboxamide] and `CC(F)(F)c1cc2ncc(C(=O)N[C@H]3CC[C@H](C(C)(C)O)CC3)cc2cc1Cl` [Example 231, 6-Chloro-7-(1,1-difluoroethyl)-N-((trans)-4-(2-hydroxypropan-2-yl)cyclohexyl)quinoline-3-carboxamide] cannot be ordered by IC50: under 10 nM for the first, under 10 nM for the second.

`CC(C)(O)[C@H]1CC[C@H](NC(=O)c2cnc3c(Cl)c(OC(F)F)ccc3c2)CC1` [Example 216, 8-Chloro-7-(difluoromethoxy)-N-((trans)-4-(2-hydroxypropan-2-yl)cyclohexyl)quinoline-3-carboxamide] and `CCOc1ccc2cc(C(=O)N[C@H]3CC[C@H](C(C)(C)O)CC3)cnc2c1Cl` [Example 218, 8-Chloro-7-ethoxy-N-(trans-4-(2-hydroxypropan-2-yl)cyclohexyl)quinoline-3-carboxamide] fall in the same range of IC50: 10 to 79.4 nM for the first, 10 to 79.4 nM for the second.

First: CC(C)(O)[C@H]1CC[C@H](NC(=O)c2cnc3c(Cl)c(OC(F)F)c(Cl)cc3c2)CC1 [Example 217, 6,8-Dichloro-7-(difluoromethoxy)-N-((trans)-4-(2-hydroxypropan-2-yl)cyclohexyl)quinoline-3-carboxamide]
Second: Cc1cc2cc(C(=O)N[C@H]3CC[C@H](C(C)(C)O)CC3)cnc2c(Cl)c1OC(F)F [Example 228, 8-Chloro-7-(difluoromethoxy)-N-((trans)-4-(2-hydroxypropan-2-yl)cyclohexyl)-6-methylquinoline-3-carboxamide]
The IC50 of the first is lower: under 10 nM for the first, 10 to 79.4 nM for the second.

Compared with `CC(C)(O)C(=O)N1CCC(NC(=O)c2cnc3cc(OC(F)F)c(Cl)cc3c2)CC1` [Example 220, 6-Chloro-7-(difluoromethoxy)-N-(1-(2-hydroxy-2-methylpropanoyl)piperidin-4-yl)quinoline-3-carboxamide], `CC(C)(O)C(=O)N1CC(NC(=O)c2cnc3cc(OC(F)F)c(Cl)cc3c2)C1` [Example 221, 6-Chloro-7-(difluoromethoxy)-N-(1-(2-hydroxy-2-methylpropanoyl)azetidin-3-yl)quinoline-3-carboxamide] is higher in IC50: under 10 nM for the first, 100 to 1000 nM for the second.

First: CC(C)(O)[C@H]1CC[C@H](NC(=O)c2cnc3cc(C4CC4(F)F)c(Cl)cc3c2)CC1 (stereo partly drawn) [Example 222, 6-Chloro-7-(2,2-difluorocyclopropyl)-N-((trans)-4-(2-hydroxypropan-2-yl)cyclohexyl)quinoline-3-carboxamide]
Second: CC(C)(F)c1cc2ncc(C(=O)N[C@H]3CC[C@H](C(C)(C)O)CC3)cc2cc1Cl [Example 230, 6-Chloro-7-(2-fluoropropan-2-yl)-N-((trans)-4-(2-hydroxypropan-2-yl)cyclohexyl)quinoline-3-carboxamide]
The IC50 of the first is higher: 10 to 79.4 nM for the first, under 10 nM for the second.

`O=C(N[C@H]1CC[C@](O)(C(F)(F)F)CC1)c1cnc2cc(OC(F)F)c(Cl)cc2c1` [Example 223, 6-Chloro-7-(difluoromethoxy)-N-((cis)-4-hydroxy-4-(trifluoromethyl)cyclohexyl)quinoline-3-carboxamide] and `O=C(N[C@H]1CC[C@@](O)(C(F)(F)F)CC1)c1cnc2cc(OC(F)F)c(Cl)cc2c1` [Example 227, 6-Chloro-7-(difluoromethoxy)-N-((trans)-4-hydroxy-4-(trifluoromethyl)cyclohexyl)quinoline-3-carboxamide] fall in the same range of IC50: 10 to 79.4 nM for the first, 10 to 79.4 nM for the second.

`CC(C)(O)C(=O)N1CCN(NC(=O)c2cnc3cc(OC(F)F)c(Cl)cc3c2)CC1` [Example 224, 6-Chloro-7-(difluoromethoxy)-N-(4-(2-hydroxy-2-methylpropanoyl)piperazin-1-yl)quinoline-3-carboxamide] and `CC(C)(O)C(=O)N[C@H]1C[C@H](NC(=O)c2cnc3cc(OC(F)F)c(Cl)cc3c2)C1` [Example 226, 6-Chloro-7-(difluoromethoxy)-N-(trans-3-(2-hydroxy-2-methylpropanamido)cyclobutyl)quinoline-3-carboxamide] fall in the same range of IC50: 10 to 79.4 nM for the first, 10 to 79.4 nM for the second.

`C=Cc1cc2ncc(C(=O)N[C@H]3CC[C@H](C(C)(C)O)CC3)cc2cc1Cl` [Example 225, 6-Chloro-N-((trans)-4-(2-hydroxypropan-2-yl)cyclohexyl)-7-vinylquinoline-3-carboxamide] and `Cc1c(OC(F)F)c(Cl)cc2cc(C(=O)N[C@H]3CC[C@H](C(C)(C)O)CC3)cnc12` [Example 229, 6-Chloro-7-(difluoromethoxy)-N-((trans)-4-(2-hydroxypropan-2-yl)cyclohexyl)-8-methylquinoline-3-carboxamide] fall in the same range of IC50: 10 to 79.4 nM for the first, 10 to 79.4 nM for the second.

`O=C(N[C@H]1CC[C@](O)(C(F)F)CC1)c1cnc2cc(OC(F)F)c(Cl)cc2c1` [Example 233, 6-Chloro-7-(difluoromethoxy)-N-((1s,4s)-4-(difluoromethyl)-4-hydroxycyclohexyl)quinoline-3-carboxamide] and `O=C(N[C@H]1CC[C@@](O)(C(F)F)CC1)c1cnc2cc(OC(F)F)c(Cl)cc2c1` [Example 234, 6-Chloro-7-(difluoromethoxy)-N-((1r,4r)-4-(difluoromethyl)-4-hydroxycyclohexyl)quinoline-3-carboxamide] fall in the same range of IC50: 10 to 79.4 nM for the first, 10 to 79.4 nM for the second.

First: CC(C)(O)[C@H]1CC[C@H](NC(=O)c2cnc3c(Cl)c(OC(F)F)c(F)cc3c2)CC1 [Example 235, 8-Chloro-7-(difluoromethoxy)-6-fluoro-N-(trans-4-(2-hydroxypropan-2-yl)cyclohexyl)quinoline-3-carboxamide]
Second: CC(C)(O)[C@H]1CC[C@H](NC(=O)c2cnc3c(F)c(OC(F)F)c(Cl)cc3c2)CC1 [Example 236, 6-Chloro-7-(difluoromethoxy)-8-fluoro-N-(trans-4-(2-hydroxypropan-2-yl)cyclohexyl)quinoline-3-carboxamide]
The IC50 of the first is higher: 10 to 79.4 nM for the first, under 10 nM for the second.

Same assay, conditions: in at least one experimental run; read-out: H-PGDS pIC50 value (converted)

Point of comparison: `O=C(N[C@H]1C[C@H](N2CC(O)(C(F)(F)F)C2)C1)c1cnc2cc(OC(F)F)c(Cl)cc2c1` [Example 214, 6-Chloro-7-(difluoromethoxy)-N-((trans)-3-(3-hydroxy-3-(trifluoromethyl)azetidin-1-yl)cyclobutyl)quinoline-3-carboxamide], IC50 6.31 nM. Against it:
- CC(C)(O)[C@H]1CC[C@H](NC(=O)c2cnc3cc(C4CC4(F)F)c(Cl)cc3c2)CC1 (stereo partly drawn) [Example 222, 6-Chloro-7-(2,2-difluorocyclopropyl)-N-((trans)-4-(2-hydroxypropan-2-yl)cyclohexyl)quinoline-3-carboxamide] — 10-fold higher, 63.1 nM

Test system: male C57Bl/6N mice
Assay: In vivo functional response to muscle injury (eccentric contraction-induced muscle fatigue)
Set-up: species or system mouse
Conditions: PO 1, 3 and 10 mg/kg BID beginning 10 min prior to eccentric contraction challenge, FIG. 1
From the text: (§1) Under anesthesia, the right hind limb of a mouse is restrained at the knee and the foot attached to a motorized footplate/force transducer. Needle electrodes are inserted into the upper limb, either side of the sciatic nerve and a current sufficient to elicit a maximal muscle contraction is applied. Muscle tension is produced by moving the footplate to lengthen the plantarflexor muscles while the limb is under maximal stimulation. This is repeated 60 times to fatigue the muscles of the lower limb. Anesthesia, limb immobilization and limb stimulation are then repeated at regular intervals to measure maximal isometric force in the recovering limb. 7 to 9 animals are tested for each test condition.

For `CC(C)(O)[C@H]1CC[C@H](NC(=O)c2cnc3cc(OC(F)F)ccc3c2)CC1` [Example 6, 7-(Difluoromethoxy)-N-((trans)-4-(2-hydroxypropan-2-yl)cyclohexyl)quinoline-3-carboxamide], the “kinetics of recovery of maximal isometric force” value was “acceleration in the kinetics of recovery”.

Same assay, conditions: PO 3 and 10 mg/kg BID, FIG. 1

With `CC(C)(O)[C@H]1CC[C@H](NC(=O)c2cnc3cc(OC(F)F)ccc3c2)CC1` [Example 6, 7-(Difluoromethoxy)-N-((trans)-4-(2-hydroxypropan-2-yl)cyclohexyl)quinoline-3-carboxamide] the “initial magnitude of the injury (isometric limb force 24-hours following protocol initiation)” value was “reduced the initial magnitude of the injury”.

Test system: male C57BL/mdx mice
Assay: In vivo functional response to eccentric contraction-induced muscle damage in mdx mice (Duchenne Muscular Dystrophy model)
Set-up: species or system mouse
Conditions: 30 mg/kg BID; 8 month-old male C57BL/mdx mice; FIG. 2
From the text: as §1
The force deficit and recovery kinetics following eccentric contraction-induced muscle damage was also evaluated in middle-aged (8 month-old) male C57BL/mdx mice, a preclinical model of Duchenne Muscular Dystrophy. In this dystrophin-null background, the protocol elicited a greater functional deficit (˜75%) and a protracted recovery interval, as shown in the eccentric vehicle controls.

`O=C(N[C@H]1CCNC1=O)c1cnc2cc(OC(F)F)c(F)cc2c1` [Example 48, (S)-7-(Difluoromethoxy)-6-fluoro-N-(2-oxopyrrolidin-3-yl)quinoline-3-carboxamide] was tested, and the “force deficit at 24-hours” value was “significantly blunted the force deficit at 24-hours”.

In the case of `O=C(N[C@H]1CCNC1=O)c1cnc2cc(OC(F)F)c(F)cc2c1` [Example 48, (S)-7-(Difluoromethoxy)-6-fluoro-N-(2-oxopyrrolidin-3-yl)quinoline-3-carboxamide], the “rate and extent of functional recovery” value is reported as “improved both the rate and extent of functional recovery”.
